Measurements reported in PubChem BioAssay (NCI).
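Exposure lasted 48 hours, with cells grown in 96-well plates and compounds tested at five concentrations. GI50 = concentration required for 50% inhibition of growth. TGI marks complete inhibition of growth.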

Assays:
Experiment in all cases: growth of human tumour cells (NCI), 48 h
786-0 renal = tested on: 786-0 renal
A498 renal = tested on: A498 renal
A549 NSCLC = tested on: A549 NSCLC
ACHN renal = tested on: ACHN renal
BT-549 breast = tested on: BT-549 breast
CAKI-1 renal = tested on: CAKI-1 renal
CCRF-CEM leukemia = tested on: CCRF-CEM leukemia
COLO 205 colon = tested on: COLO 205 colon
DU-145 prostate = tested on: DU-145 prostate
EKVX NSCLC = tested on: EKVX NSCLC
HCC-2998 colon = tested on: HCC-2998 colon
HCT-116 colon = tested on: HCT-116 colon
HCT-15 colon = tested on: HCT-15 colon
HL-60(TB) leukemia = tested on: HL-60(TB) leukemia
HOP-62 NSCLC = tested on: HOP-62 NSCLC
HOP-92 NSCLC = tested on: HOP-92 NSCLC
HS 578T breast = tested on: HS 578T breast
HT29 colon = tested on: HT29 colon
IGROV1 ovarian = tested on: IGROV1 ovarian
K-562 leukemia = tested on: K-562 leukemia
KM12 colon = tested on: KM12 colon
LOX IMVI melanoma = tested on: LOX IMVI melanoma
M14 melanoma = tested on: M14 melanoma
MALME-3M melanoma = tested on: MALME-3M melanoma
MCF7 breast = tested on: MCF7 breast
MDA-MB-231 breast = tested on: MDA-MB-231 breast
MDA-MB-435 = tested on: MDA-MB-435
MOLT-4 leukemia = tested on: MOLT-4 leukemia
NCI-H226 lung = tested on: NCI-H226 lung
NCI-H460 lung = tested on: NCI-H460 lung
NCI-H522 lung = tested on: NCI-H522 lung
NCI/ADR-RES ovarian = tested on: NCI/ADR-RES ovarian
OVCAR-3 ovarian = tested on: OVCAR-3 ovarian
OVCAR-4 ovarian = tested on: OVCAR-4 ovarian
OVCAR-5 ovarian = tested on: OVCAR-5 ovarian
OVCAR-8 ovarian = tested on: OVCAR-8 ovarian
PC-3 prostate = tested on: PC-3 prostate
RPMI-8226 leukemia = tested on: RPMI-8226 leukemia
RXF 393 renal = tested on: RXF 393 renal
SF-268 CNS = tested on: SF-268 CNS
SF-295 CNS = tested on: SF-295 CNS
SF-539 CNS = tested on: SF-539 CNS
SK-MEL-2 melanoma = tested on: SK-MEL-2 melanoma
SK-MEL-28 melanoma = tested on: SK-MEL-28 melanoma
SK-MEL-5 melanoma = tested on: SK-MEL-5 melanoma
SK-OV-3 ovarian = tested on: SK-OV-3 ovarian
SN12C renal = tested on: SN12C renal
SNB-19 CNS = tested on: SNB-19 CNS
SNB-75 CNS = tested on: SNB-75 CNS
SR leukemia = tested on: SR leukemia
SW-620 colon = tested on: SW-620 colon
T-47D breast = tested on: T-47D breast
TK-10 renal = tested on: TK-10 renal
U251 CNS = tested on: U251 CNS
UACC-257 melanoma = tested on: UACC-257 melanoma
UACC-62 melanoma = tested on: UACC-62 melanoma
UO-31 renal = tested on: UO-31 renal

Molecule `O=C(Nc1ccc(Cl)c(C(F)(F)F)c1)Nc1ccc2c(ccn2C(=O)c2cccc(F)c2)c1` has a GI50 (786-0 renal) of 2.63 µM, a TGI (786-0 renal) of 11.1 µM and a GI50 (A498 renal) of 2.67 µM. For the same molecule, the TGI (A498 renal) was 9.86 µM, the GI50 (A549 NSCLC) was 2.9 µM and the TGI (A549 NSCLC) was 22.7 µM. For the same molecule, the GI50 (ACHN renal) was 2.56 µM, the TGI (ACHN renal) was 7.47 µM and the GI50 (BT-549 breast) was 2.61 µM. For the same molecule, the TGI (BT-549 breast) was 8.98 µM, the GI50 (CAKI-1 renal) was 2.16 µM and the TGI (CAKI-1 renal) was 9.07 µM. For the same molecule, the GI50 (CCRF-CEM leukemia) was 3.78 µM, the TGI (CCRF-CEM leukemia) was > 100 µM and the GI50 (COLO 205 colon) was 2.25 µM. The TGI (COLO 205 colon) was 5.57 µM, the GI50 (DU-145 prostate) was 3.5 µM and the TGI (DU-145 prostate) was 48.8 µM. For the same molecule, the GI50 (EKVX NSCLC) was 2.2 µM, the TGI (EKVX NSCLC) was 7.8 µM and the GI50 (HCC-2998 colon) was 2.49 µM. The TGI (HCC-2998 colon) was 9.04 µM, the GI50 (HCT-116 colon) was 3 µM and the TGI (HCT-116 colon) was 10.6 µM. It also gave a GI50 (HCT-15 colon) of 2.37 µM, a TGI (HCT-15 colon) of 9.7 µM and a GI50 (HL-60(TB) leukemia) of 2.33 µM. It also gave a TGI (HL-60(TB) leukemia) of 7.82 µM, a GI50 (HOP-62 NSCLC) of 2.45 µM and a TGI (HOP-62 NSCLC) of 7.81 µM. It also gave a GI50 (HOP-92 NSCLC) of 2.07 µM, a TGI (HOP-92 NSCLC) of 5.77 µM and a GI50 (HS 578T breast) of 2.8 µM. For the same molecule, the TGI (HS 578T breast) was 8.55 µM, the GI50 (HT29 colon) was 3.16 µM and the TGI (HT29 colon) was 50.8 µM. For the same molecule, the GI50 (IGROV1 ovarian) was 2.75 µM, the TGI (IGROV1 ovarian) was 10.6 µM and the GI50 (K-562 leukemia) was 3.15 µM. It also gave a TGI (K-562 leukemia) of 16.4 µM, a GI50 (KM12 colon) of 2.83 µM and a TGI (KM12 colon) of 12 µM. It also gave a GI50 (LOX IMVI melanoma) of 1.43 µM, a TGI (LOX IMVI melanoma) of 3.28 µM and a GI50 (M14 melanoma) of 3.22 µM. The TGI (M14 melanoma) was 16.8 µM, the GI50 (MALME-3M melanoma) was 1.92 µM and the TGI (MALME-3M melanoma) was 5.87 µM. For the same molecule, the GI50 (MCF7 breast) was 2.12 µM, the TGI (MCF7 breast) was 7.66 µM and the GI50 (MDA-MB-231 breast) was 2.91 µM. For the same molecule, the TGI (MDA-MB-231 breast) was 11 µM, the GI50 (MDA-MB-435) was 2.84 µM and the TGI (MDA-MB-435) was 14.1 µM. The GI50 (MOLT-4 leukemia) was 3.4 µM, the TGI (MOLT-4 leukemia) was > 100 µM and the GI50 (NCI-H226 lung) was 2.46 µM. It also gave a TGI (NCI-H226 lung) of 7.5 µM, a GI50 (NCI-H460 lung) of 2.8 µM and a TGI (NCI-H460 lung) of 10 µM. The GI50 (NCI-H522 lung) was 2.42 µM, the TGI (NCI-H522 lung) was 7.67 µM and the GI50 (NCI/ADR-RES ovarian) was 2.5 µM. The TGI (NCI/ADR-RES ovarian) was 7.25 µM, the GI50 (OVCAR-3 ovarian) was 2.16 µM and the TGI (OVCAR-3 ovarian) was 6.2 µM. The GI50 (OVCAR-4 ovarian) was 2.98 µM, the TGI (OVCAR-4 ovarian) was > 100 µM and the GI50 (OVCAR-5 ovarian) was 4.86 µM. The TGI (OVCAR-5 ovarian) was 38.9 µM, the GI50 (OVCAR-8 ovarian) was 3.15 µM and the TGI (OVCAR-8 ovarian) was 17.9 µM. The GI50 (PC-3 prostate) was 2.92 µM, the TGI (PC-3 prostate) was 33.5 µM and the GI50 (RPMI-8226 leukemia) was 2.78 µM. It also gave a TGI (RPMI-8226 leukemia) of 10.9 µM, a GI50 (RXF 393 renal) of 1.74 µM and a TGI (RXF 393 renal) of 4.08 µM. For the same molecule, the GI50 (SF-268 CNS) was 3.43 µM, the TGI (SF-268 CNS) was > 100 µM and the GI50 (SF-295 CNS) was 1.93 µM. The TGI (SF-295 CNS) was 4.76 µM, the GI50 (SF-539 CNS) was 2.71 µM and the TGI (SF-539 CNS) was 8.26 µM. The GI50 (SK-MEL-2 melanoma) was 2.36 µM, the TGI (SK-MEL-2 melanoma) was 6.89 µM and the GI50 (SK-MEL-28 melanoma) was 3.37 µM. For the same molecule, the TGI (SK-MEL-28 melanoma) was 19.6 µM, the GI50 (SK-MEL-5 melanoma) was 2.4 µM and the TGI (SK-MEL-5 melanoma) was 6.64 µM. It also gave a GI50 (SK-OV-3 ovarian) of 2.79 µM, a TGI (SK-OV-3 ovarian) of 8.99 µM and a GI50 (SN12C renal) of 3.1 µM. The TGI (SN12C renal) was 15.8 µM, the GI50 (SNB-19 CNS) was 3.18 µM and the TGI (SNB-19 CNS) was 14.1 µM. It also gave a GI50 (SNB-75 CNS) of 1.9 µM, a TGI (SNB-75 CNS) of 9.11 µM and a GI50 (SR leukemia) of 2.13 µM. The TGI (SR leukemia) was 9.12 µM, the GI50 (SW-620 colon) was 3.5 µM and the TGI (SW-620 colon) was 35.8 µM. For the same molecule, the GI50 (T-47D breast) was 2.53 µM, the TGI (T-47D breast) was 9.11 µM and the GI50 (TK-10 renal) was 2.91 µM. For the same molecule, the TGI (TK-10 renal) was 36.5 µM, the GI50 (U251 CNS) was 3.01 µM and the TGI (U251 CNS) was 11.4 µM. It also gave a GI50 (UACC-257 melanoma) of 2.44 µM, a TGI (UACC-257 melanoma) of 7.74 µM and a GI50 (UACC-62 melanoma) of 2.53 µM. It also gave a TGI (UACC-62 melanoma) of 15.3 µM, a GI50 (UO-31 renal) of 1.7 µM and a TGI (UO-31 renal) of 4.42 µM.
